Numbered stars: 1 amine (or outer) side, 2 acyl side, 3 side chain; on linkers, the order of the positions; unused ones are H or OH. Bridge positions count the residues as written; N and C are the ends. Square brackets hold non-standard residues; d marks the D form. Side chains are listed from the residue outwards. Peptide text beside a SMILES is read from it. * marks the point of attachment. γGlu = O=C(O)[C@H](CCC(=O)[*:2])N[*:1]; Palmitoyl = CCCCCCCCCCCCCCCC(=O)*; Aib = CC(C)(N)C(=O)O
Legend:
human GLP-1R = target: T1, human GLP-1R (Homo sapiens, UniProt P43220); assay: cAMP formation in HEK293 cells expressing human GLP-1R; format: cell-based; conditions: 15 min at 37° C.
T1 construct: expressed in transfected cells; host or cells: HEK293
Description: (§1) Similarly, activation of the GLP-1 receptor by a GLP-1 agonist will stimulate cellular cAMP formation. Thus, production of cAMP in suitable cells expressing one of these two receptors can be used to monitor the relevant receptor activity.
(§2) The skilled person will be aware of suitable assay formats, and examples are provided below. […] (Where sequences of precursor proteins are referred to, it should of course be understood that assays may make use of the mature protein, lacking the signal sequence).
(§3) On the day of analysis, growth medium was removed and the cells washed once with 200 μl Tyrode buffer. Cells were incubated in […] containing increasing concentrations of test peptides, 100 μM IBMX, and 6 mM glucose for 15 min at 37° C. The reaction was stopped by addition of 25 μl 0.5 M HCl and incubated on ice for 60 min. The cAMP content was estimated using the FlashPlate® cAMP kit from Perkin-Elmer. EC50 values were estimated by computer aided curve fitting.

human glucagon receptor = target: T2, human glucagon receptor (Homo sapiens, UniProt P47871); assay: cAMP formation in HEK293 cells expressing the human glucagon receptor; format: cell-based; conditions: 15 min at 37° C., read-out: EC50 (nM) GuR
T2 construct: expressed in transfected cells; host or cells: HEK293
Description: as §1, §2, §3

T1 sequence (P43220 24-463): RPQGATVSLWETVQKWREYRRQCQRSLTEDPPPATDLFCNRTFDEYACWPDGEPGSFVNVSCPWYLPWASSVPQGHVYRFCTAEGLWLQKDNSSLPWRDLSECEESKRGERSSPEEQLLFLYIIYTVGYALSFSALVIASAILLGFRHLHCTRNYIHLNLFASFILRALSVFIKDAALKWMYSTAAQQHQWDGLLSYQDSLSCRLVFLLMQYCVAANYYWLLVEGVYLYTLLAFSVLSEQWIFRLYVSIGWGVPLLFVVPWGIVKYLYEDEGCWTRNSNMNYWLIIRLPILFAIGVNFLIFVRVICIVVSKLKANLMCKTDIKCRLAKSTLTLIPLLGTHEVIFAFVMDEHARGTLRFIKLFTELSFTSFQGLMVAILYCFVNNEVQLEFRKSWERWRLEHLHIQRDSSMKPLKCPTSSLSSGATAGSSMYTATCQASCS
T2 sequence (P47871 26-477): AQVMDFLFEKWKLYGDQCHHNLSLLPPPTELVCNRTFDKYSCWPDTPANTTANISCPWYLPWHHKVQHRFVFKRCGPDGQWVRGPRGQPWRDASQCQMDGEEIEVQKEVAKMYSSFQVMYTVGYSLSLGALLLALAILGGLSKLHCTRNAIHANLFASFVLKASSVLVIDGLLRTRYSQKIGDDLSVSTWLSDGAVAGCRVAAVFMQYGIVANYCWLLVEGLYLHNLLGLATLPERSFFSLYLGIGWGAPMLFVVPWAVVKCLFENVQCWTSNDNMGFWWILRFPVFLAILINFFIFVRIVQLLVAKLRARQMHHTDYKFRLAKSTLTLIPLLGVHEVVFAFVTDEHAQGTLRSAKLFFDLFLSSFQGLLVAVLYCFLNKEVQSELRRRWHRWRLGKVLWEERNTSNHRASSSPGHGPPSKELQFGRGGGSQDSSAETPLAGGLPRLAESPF

Row | EC50 (human GLP-1R) | EC50 (human glucagon receptor) | Molecule
1 | 0.08 nM | 0.06 nM | CC(C)C[C@H](NC(=O)[C@H](CC(C)C)NC(=O)[C@H](Cc1c[nH]c2ccccc12)NC(=O)[C@H](CCC(=O)O)NC(=O)[C@@H](NC(=O)[C@H](Cc1ccccc1)NC(=O)[C@H](CC(=O)O)NC(=O)[C@H](Cc1c[nH]cn1)NC(=O)[C@H](C)NC(=O)[C@H](C)NC(=O)[C@H](CCCCN)NC(=O)[C@H](CO)NC(=O)[C@H](CC(=O)O)NC(=O)[C@H](CC(C)C)NC(=O)[C@H](Cc1ccc(O)cc1)NC(=O)[C@H](CCCCN)NC(=O)[C@H](CO)NC(=O)[C@H](Cc1ccc(O)cc1)NC(=O)[C@H](CC(=O)O)NC(=O)[C@H](CO)NC(=O)[C@@H](NC(=O)[C@H](Cc1ccccc1)NC(=O)[C@@H](NC(=O)CNC(=O)[C@H](CCC(N)=O)NC(=O)C(C)(C)NC(=O)[C@@H](N)Cc1c[nH]cn1)[C@@H](C)O)[C@@H](C)O)C(C)C)C(=O)N[C@@H](CCCNC(=N)N)C(=O)N[C@@H](C)C(N)=O [Compound 45] (H-H[Aib]QGTFTSDYSKYLDSKAAHDFVEWLLRA-NH2)
2 | 0.1 nM | 0.04 nM | CCCCCCCCCCCCCCCC(=O)N[C@@H](CCC(=O)NCCCC[C@H](NC(=O)[C@H](C)NC(=O)[C@H](C)NC(=O)[C@H](CCCCN)NC(=O)[C@H](CO)NC(=O)[C@H](CC(=O)O)NC(=O)[C@H](CC(C)C)NC(=O)[C@H](Cc1ccc(O)cc1)NC(=O)[C@H](CCCCN)NC(=O)[C@H](CO)NC(=O)[C@H](Cc1ccc(O)cc1)NC(=O)[C@H](CC(=O)O)NC(=O)[C@H](CO)NC(=O)[C@@H](NC(=O)[C@H](Cc1ccccc1)NC(=O)[C@@H](NC(=O)CNC(=O)[C@H](CCC(N)=O)NC(=O)[C@H](CO)NC(=O)[C@@H](N)Cc1c[nH]cn1)[C@@H](C)O)[C@@H](C)O)C(=O)N[C@@H](CC(=O)O)C(=O)N[C@@H](Cc1ccccc1)C(=O)N[C@H](C(=O)N[C@@H](CCC(=O)O)C(=O)N[C@@H](Cc1c[nH]c2ccccc12)C(=O)N[C@@H](CC(C)C)C(=O)N[C@@H](CC(C)C)C(=O)N[C@@H](CCCNC(=N)N)C(=O)N[C@@H](C)C(N)=O)C(C)C)C(=O)O [Compound 204] (H-HSQGTFTSDYSKYLDSKAAK([γGlu-Palmitoyl])DFVEWLLRA-NH2)
3 | 0.09 nM | 0.1 nM | CCCCCCCCCCCCCCCC(=O)N[C@@H](CCC(=O)NCCCC[C@H](NC(=O)[C@H](CC(C)C)NC(=O)[C@H](CC(C)C)NC(=O)[C@H](Cc1c[nH]c2ccccc12)NC(=O)[C@H](CCC(=O)O)NC(=O)[C@@H](NC(=O)[C@H](Cc1ccccc1)NC(=O)[C@H](CC(=O)O)NC(=O)[C@H](Cc1c[nH]cn1)NC(=O)[C@H](C)NC(=O)[C@H](C)NC(=O)[C@H](CCCCN)NC(=O)[C@H](CO)NC(=O)[C@H](CC(=O)O)NC(=O)[C@H](CC(C)C)NC(=O)[C@H](Cc1ccc(O)cc1)NC(=O)[C@H](CCCCN)NC(=O)[C@H](CO)NC(=O)[C@H](Cc1ccc(O)cc1)NC(=O)[C@H](CC(=O)O)NC(=O)[C@H](CO)NC(=O)[C@@H](NC(=O)[C@H](Cc1ccccc1)NC(=O)[C@@H](NC(=O)CNC(=O)[C@H](CCC(N)=O)NC(=O)[C@H](CO)NC(=O)[C@@H](N)Cc1c[nH]cn1)[C@@H](C)O)[C@@H](C)O)C(C)C)C(=O)N[C@@H](C)C(N)=O)C(=O)O [Compound 205] (H-HSQGTFTSDYSKYLDSKAAHDFVEWLLK([γGlu-Palmitoyl])A-NH2)
4 | 0.08 nM | – | CCCCCCCCCCCCCCCC(=O)N[C@@H](CCC(=O)NCCCC[C@H](NC(=O)[C@H](CO)NC(=O)[C@H](CC(=O)O)NC(=O)[C@H](CC(C)C)NC(=O)[C@H](Cc1ccc(O)cc1)NC(=O)[C@H](CCCCN)NC(=O)[C@H](CO)NC(=O)[C@H](Cc1ccc(O)cc1)NC(=O)[C@H](CC(=O)O)NC(=O)[C@H](CO)NC(=O)[C@@H](NC(=O)[C@H](Cc1ccccc1)NC(=O)[C@@H](NC(=O)CNC(=O)[C@H](CCC(N)=O)NC(=O)C(C)(C)NC(=O)[C@@H](N)Cc1c[nH]cn1)[C@@H](C)O)[C@@H](C)O)C(=O)N[C@@H](C)C(=O)N[C@@H](C)C(=O)N[C@@H](Cc1c[nH]cn1)C(=O)N[C@@H](CC(=O)O)C(=O)N[C@@H](Cc1ccccc1)C(=O)N[C@H](C(=O)N[C@H]1CCC(=O)NCCCC[C@@H](C(=O)N[C@@H](C)C(N)=O)NC(=O)[C@H](CC(C)C)NC(=O)[C@H](CC(C)C)NC(=O)[C@H](Cc2c[nH]c3ccccc23)NC1=O)C(C)C)C(=O)O [Compound 210] (H-H[Aib]QGTFTSDYSKYLDSK([γGlu-Palmitoyl])AAHDFVEWLLKA-NH2; lactam 24-28)
5 | 0.23 nM | – | CCCCCCCCCCCCCCCC(=O)NCCC(=O)NCCCC[C@H](NC(=O)[C@H](CO)NC(=O)[C@H](CC(=O)O)NC(=O)[C@H](CC(C)C)NC(=O)[C@H](Cc1ccc(O)cc1)NC(=O)[C@H](CCCCN)NC(=O)[C@H](CO)NC(=O)[C@H](Cc1ccc(O)cc1)NC(=O)[C@H](CC(=O)O)NC(=O)[C@H](CO)NC(=O)[C@@H](NC(=O)[C@H](Cc1ccccc1)NC(=O)[C@@H](NC(=O)CNC(=O)[C@H](CCC(N)=O)NC(=O)C(C)(C)NC(=O)[C@@H](N)Cc1c[nH]cn1)[C@@H](C)O)[C@@H](C)O)C(=O)N[C@@H](C)C(=O)N[C@@H](C)C(=O)N[C@@H](Cc1c[nH]cn1)C(=O)N[C@@H](CC(=O)O)C(=O)N[C@@H](Cc1ccccc1)C(=O)N[C@H](C(=O)N[C@@H](CCC(=O)O)C(=O)N[C@@H](Cc1c[nH]c2ccccc12)C(=O)N[C@@H](CC(C)C)C(=O)N[C@@H](CC(C)C)C(=O)N[C@@H](CO)C(=O)N[C@@H](C)C(N)=O)C(C)C [Compound 215]
6 | 0.24 nM | – | CCCCCCCCCCCCCCCC(=O)NCCCCCCCC(=O)NCCCC[C@H](NC(=O)[C@H](CO)NC(=O)[C@H](CC(=O)O)NC(=O)[C@H](CC(C)C)NC(=O)[C@H](Cc1ccc(O)cc1)NC(=O)[C@H](CCCCN)NC(=O)[C@H](CO)NC(=O)[C@H](Cc1ccc(O)cc1)NC(=O)[C@H](CC(=O)O)NC(=O)[C@H](CO)NC(=O)[C@@H](NC(=O)[C@H](Cc1ccccc1)NC(=O)[C@@H](NC(=O)CNC(=O)[C@H](CCC(N)=O)NC(=O)C(C)(C)NC(=O)[C@@H](N)Cc1c[nH]cn1)[C@@H](C)O)[C@@H](C)O)C(=O)N[C@@H](C)C(=O)N[C@@H](C)C(=O)N[C@@H](Cc1c[nH]cn1)C(=O)N[C@@H](CC(=O)O)C(=O)N[C@@H](Cc1ccccc1)C(=O)N[C@H](C(=O)N[C@@H](CCC(=O)O)C(=O)N[C@@H](Cc1c[nH]c2ccccc12)C(=O)N[C@@H](CC(C)C)C(=O)N[C@@H](CC(C)C)C(=O)N[C@@H](CO)C(=O)N[C@@H](C)C(N)=O)C(C)C [Compound 216]
7 | 0.09 nM | – | CCCCCCCCCCCCCCCC(=O)NCCCC[C@H](N)C(=O)NCCCC[C@H](NC(=O)[C@H](CO)NC(=O)[C@H](CC(=O)O)NC(=O)[C@H](CC(C)C)NC(=O)[C@H](Cc1ccc(O)cc1)NC(=O)[C@H](CCCCN)NC(=O)[C@H](CO)NC(=O)[C@H](Cc1ccc(O)cc1)NC(=O)[C@H](CC(=O)O)NC(=O)[C@H](CO)NC(=O)[C@@H](NC(=O)[C@H](Cc1ccccc1)NC(=O)[C@@H](NC(=O)CNC(=O)[C@H](CCC(N)=O)NC(=O)C(C)(C)NC(=O)[C@@H](N)Cc1c[nH]cn1)[C@@H](C)O)[C@@H](C)O)C(=O)N[C@@H](C)C(=O)N[C@@H](C)C(=O)N[C@@H](Cc1c[nH]cn1)C(=O)N[C@@H](CC(=O)O)C(=O)N[C@@H](Cc1ccccc1)C(=O)N[C@H](C(=O)N[C@@H](CCC(=O)O)C(=O)N[C@@H](Cc1c[nH]c2ccccc12)C(=O)N[C@@H](CC(C)C)C(=O)N[C@@H](CC(C)C)C(=O)N[C@@H](CO)C(=O)N[C@@H](C)C(N)=O)C(C)C [Compound 217]
8 | 0.1 nM | – | CSCC[C@H](NC(=O)[C@H](CC(C)C)NC(=O)[C@H](Cc1c[nH]c2ccccc12)NC(=O)[C@@H](NC(=O)[C@H](Cc1ccccc1)NC(=O)[C@H](CC(=O)O)NC(=O)[C@@H]1CCC(=O)NCCCC[C@H](NC(=O)[C@H](CC(=O)O)NC(=O)[C@H](CC(C)C)NC(=O)[C@H](Cc2ccc(O)cc2)NC(=O)[C@H](CCCCN)NC(=O)[C@H](CO)NC(=O)[C@H](Cc2ccc(O)cc2)NC(=O)[C@H](CC(=O)O)NC(=O)[C@H](CO)NC(=O)[C@@H](NC(=O)[C@H](Cc2ccccc2)NC(=O)[C@@H](NC(=O)CNC(=O)[C@H](CCC(N)=O)NC(=O)[C@H](CO)NC(=O)[C@@H](N)Cc2c[nH]cn2)[C@@H](C)O)[C@@H](C)O)C(=O)N[C@@H](CCCNC(=N)N)C(=O)N[C@@H](CCCNC(=N)N)C(=O)N[C@@H](C)C(=O)N1)C(C)C)C(=O)N[C@@H](CC(N)=O)C(=O)N[C@H](C(N)=O)[C@@H](C)O [Compound 257] (H-HSQGTFTSDYSKYLDKRRAEDFVWLMNT-NH2; lactam 16-20)
9 | 0.11 nM | – | CCCCCCCCCCCCCCCC(=O)N[C@@H](CCC(=O)NCCCC[C@H](NC(=O)[C@H](CO)NC(=O)[C@H](CC(=O)O)NC(=O)[C@H](CC(C)C)NC(=O)[C@H](Cc1ccc(O)cc1)NC(=O)[C@H](CCCCN)NC(=O)[C@H](CO)NC(=O)[C@H](Cc1ccc(O)cc1)NC(=O)[C@H](CC(=O)O)NC(=O)[C@H](CO)NC(=O)[C@@H](NC(=O)[C@H](Cc1ccccc1)NC(=O)[C@@H](NC(=O)CNC(=O)[C@H](CCC(N)=O)NC(=O)[C@H](CO)NC(=O)[C@@H](N)Cc1c[nH]cn1)[C@@H](C)O)[C@@H](C)O)C(=O)N[C@@H](C)C(=O)N[C@@H](C)C(=O)N[C@@H](Cc1c[nH]cn1)C(=O)N[C@@H](CC(=O)O)C(=O)N[C@@H](Cc1ccccc1)C(=O)N[C@H](C(=O)N[C@@H](CCC(=O)O)C(=O)N[C@@H](Cc1c[nH]c2ccccc12)C(=O)N[C@@H](CC(C)C)C(=O)N[C@@H](CC(C)C)C(=O)N[C@@H](CCCNC(=N)N)C(=O)N[C@@H](C)C(N)=O)C(C)C)C(=O)O [Compound 262] (H-HSQGTFTSDYSKYLDSK([γGlu-Palmitoyl])AAHDFVEWLLRA-NH2)
10 | – | 0.06 nM | H-HSQGTFTSDYSKYLDSKAAHDFVEWLLRA-NH2 [Compound 48]
11 | – | 0.07 nM | H-HSQGTFTSDYSKYLDSKAAQDFVWLMNT-NH2 [Compound 260]
12 | – | 0.06 nM | H-HSQGTFTSDYSRYLDERRAQDFVWLMNT-NH2 [Compound 258]
13 | 0.5 nM | – | H-HSQGTFTSDYSRYLDSRRAKDFVWLLNT-NH2 [Compound 252]
